The source made the active and inactive calls. No rule for the calls is given here.
Tested on: GENE-TOX genotoxicity assays, various organisms and cells
Experiment: GENE-TOX mutagenicity studies
Conditions: for call: Assay Type: In vivo carcinogenicity studies
[1] = Species/Cell Type: Escherichia coli polA (W3119 vs P3478), Assay Type: Rec-assay, DNA effects (bacterial DNA repair), Assay Code: RE1T, Evaluation Type: Evaluation A (Pre-1980)
[2] = Species/Cell Type: Fischer rat embryo (RLV/1706) cells, Assay Type: Cell transformation, viral enhanced, Assay Code: CTR+, Evaluation Type: Evaluation A (Pre-1980)
[3] = Species/Cell Type: Nonhuman, Assay Code: CCG+L, Evaluation Type: Evaluation A (Pre-1980)
[4] = Species/Cell Type: Saccharomyces cerevisiae, Assay Type: Mitotic recombination or gene conversion, Assay Code: YEH-, Evaluation Type: Evaluation A (Pre-1980)
[5] = Species/Cell Type: Salmonella typhimurium (one or more of the five standard strains: TA98, TA100, TA1535, TA1537, and TA1538), Assay Type: Histidine reverse gene mutation, Ames assay, Assay Code: SAL+*, Activation: With metabolic activation, Evaluation Type: Evaluation A (Pre-1980)
[6] = Species/Cell Type: Salmonella typhimurium, Assay Type: Forward and reverse gene mutation, host-mediated assay, Assay Code: HMA-, Evaluation Type: Evaluation A (Pre-1980)
[7] = Species/Cell Type: Syrian hamster embryo (SHE) cells, Assay Type: Cell transformation, clonal assay, Assay Code: CTC+, Evaluation Type: Evaluation A (Pre-1980)
[8] = Species/Cell Type: Escherichia coli WP2 UVRA, Assay Type: Tryptophan reverse gene mutation, Assay Code: WPU-*, Activation: With metabolic activation, Evaluation Type: Evaluation A (Pre-1980)
[9] = Species/Cell Type: Salmonella typhimurium (one or more of the five standard strains: TA98, TA100, TA1535, TA1537, and TA1538), Assay Type: Histidine reverse gene mutation, Ames assay, Assay Code: SALT, Evaluation Type: Evaluation A (Pre-1980)
[10] = Species/Cell Type: Drosophila melanogaster, Assay Type: Sex-linked recessive lethal gene mutation, Assay Code: SRL+, Evaluation Type: Evaluation A (Pre-1980)
[11] = Species/Cell Type: Nonhuman, Assay Code: CCG+, Evaluation Type: Evaluation A (Pre-1980)
[12] = Species/Cell Type: Salmonella typhimurium (one or more of the five standard strains: TA98, TA100, TA1535, TA1537, and TA1538), Assay Type: Histidine reverse gene mutation, Ames assay, Assay Code: SAL-, Evaluation Type: Evaluation A (Pre-1980)
[13] = Species/Cell Type: Nonhuman, Assay Type: Sister-chromatid exchange (SCE) in vitro, Assay Code: SC2+D, Dose Response: With dose response, Evaluation Type: Evaluation B (Post-1980)
[14] = Species/Cell Type: Rodents, Sex: Male, Assay Type: Dominant lethal test, Assay Code: DLT-, Evaluation Type: Evaluation A (Pre-1980)
[15] = Species/Cell Type: Saccharomyces cerevisiae, Assay Type: Reverse gene mutation, Assay Code: YER+, Evaluation Type: Evaluation A (Pre-1980)
[16] = Species/Cell Type: Salmonella typhimurium (one or more of the five standard strains: TA98, TA100, TA1535, TA1537, and TA1538), Assay Type: Histidine reverse gene mutation, Ames assay, Assay Code: SAL+, Evaluation Type: Evaluation A (Pre-1980)
[17] = Species/Cell Type: Chinese hamster lung (V79) cells, Assay Type: Forward gene mutation at the HPRT or ouabain locus, Assay Code: V79+, Evaluation Type: Evaluation A (Pre-1980)
[18] = Species/Cell Type: Allium cepa, Assay Type: Chromosome aberrations, Assay Code: ALC+, Evaluation Type: Evaluation A (Pre-1980)

Structure (SMILES): Cc1ccc2nc3c(ccc4ccccc43)c(C)c2c1
- mutagenic call (Species/Cell Type: Escherichia coli polA (W3110 vs P3478), Assay Type: Rec-assay, DNA effects (bacterial DNA repair), Assay Code: RE2T, Evaluation Type: Evaluation A (Pre-1980)): no conclusion
- mutagenic call [1]: no conclusion
- mutagenic call [2]: active; positive
- mutagenic call (Species/Cell Type: Mouse (BALB/c-3T3) cells, Assay Type: Cell transformation, Assay Code: CTB-, Evaluation Type: Evaluation A (Pre-1980)): inactive; negative
- call [3]: active; positive
- mutagenic call [4]: inactive; negative
- mutagenic call [5]: active; positive
- mutagenic call [6]: inactive; negative
- mutagenic call [7]: active; positive

Structure (SMILES): O=c1oc2cc3occc3cc2c2ccncc12
- mutagenic call (Species/Cell Type: Human, Assay Type: Sister-chromatid exchange (SCE) in vitro, Assay Code: SC1T, Evaluation Type: Evaluation B (Post-1980)): no conclusion

Structure (SMILES): O=S(O)OS(=O)O
- mutagenic call [8]: inactive; negative

Structure (SMILES): CC(=O)Nc1ccc(CCc2ccccc2)cc1
- mutagenic call [9]: no conclusion

Structure (SMILES): Nc1ccc2ccc3ccccc3c2n1
- mutagenic call [5]: active; positive

Structure (SMILES): NC(Cc1ccc(N(CCCl)CCCl)cc1)C(=O)O (stereo not drawn)
- mutagenic call [10]: active; positive
- call [11]: active; positive

Structure (SMILES): CC1=C2C(=CO[C@H](C)[C@H]2C)C(=O)C(C(=O)O)=C1O
- mutagenic call (Species/Cell Type: Bacillus subtilis (H17 vs M45), Assay Type: Rec-assay, spot test, DNA effects (bacterial DNA repair), Assay Code: REW+, Evaluation Type: Evaluation A (Pre-1980)): active; positive
- mutagenic call [4]: inactive; negative

Structure (SMILES): CC(N)=O
- mutagenic call (Species/Cell Type: Escherichia coli polA (W3110 vs P3478), Assay Type: Rec-assay, DNA effects (bacterial DNA repair), Assay Code: RE2-, Evaluation Type: Evaluation A (Pre-1980)): inactive; negative
- mutagenic call [1]: no conclusion
- mutagenic call [2]: active; positive
- mutagenic call (Species/Cell Type: Mammalian polychromatic erythrocytes, Assay Type: Micronucleus test, chromosome aberrations, Assay Code: MNT+U, Dose Response: Unconfirmed positive response, Evaluation Type: Evaluation B (Post-1980)): active; positive
- mutagenic call (Species/Cell Type: Mouse embryo (AKR/ME) cells, Assay Type: Cell transformation, Assay Code: CTK+, Evaluation Type: Evaluation A (Pre-1980)): active; positive
- mutagenic call (Species/Cell Type: Mouse, Sex: Male, Assay Type: Sperm morphology, Assay Code: SPI-, Evaluation Type: Evaluation A (Pre-1980)): inactive; negative
- call [11]: active; positive
- mutagenic call [4]: inactive; negative
- mutagenic call [12]: inactive; negative
- mutagenic call [6]: inactive; negative
- mutagenic call [7]: active; positive

Structure (SMILES): O=S(O)O
- mutagenic call [8]: inactive; negative
- mutagenic call (Species/Cell Type: Mouse, Sex: Male, Assay Type: Heritable translocation test, chromosome aberrations, Assay Code: HTT-, Evaluation Type: Evaluation A (Pre-1980)): inactive; negative
- mutagenic call (Species/Cell Type: Mouse, Sex: Male, Assay Type: Specific locus test, gene mutation, Assay Code: SLT-, Evaluation Type: Evaluation A (Pre-1980)): inactive; negative
- mutagenic call [13]: active; positive
- mutagenic call [14]: inactive; negative
- mutagenic call [15]: active; positive

Structure (SMILES): N/C=N/O
- mutagenic call (Species/Cell Type: Escherichia coli polA (W3119 vs P3478), Assay Type: Rec-assay, DNA effects (bacterial DNA repair), Assay Code: RE1+, Evaluation Type: Evaluation A (Pre-1980)): active; positive

Structure (SMILES): CC(=O)ON(C(C)=O)c1ccc(/C=C/c2ccccc2)cc1
- mutagenic call (Species/Cell Type: Saccharomyces cerevisiae, Assay Type: Mitotic recombination or gene conversion, Assay Code: YEC+, Evaluation Type: Evaluation A (Pre-1980)): active; positive
- mutagenic call (Species/Cell Type: Saccharomyces cerevisiae, Assay Type: Mitotic recombination or gene conversion, Assay Code: YEH+, Evaluation Type: Evaluation A (Pre-1980)): active; positive
- mutagenic call [15]: active; positive

Structure (SMILES): NN
- mutagenic call (Species/Cell Type: Drosophila melanogaster, Assay Type: Sex-linked recessive lethal gene mutation, Assay Code: SRLT, Evaluation Type: Evaluation A (Pre-1980)): no conclusion
- call [11]: active; positive
- mutagenic call [13]: active; positive
- mutagenic call (Species/Cell Type: Saccharomyces cerevisiae, Assay Type: Forward gene mutation, Assay Code: YEF+, Evaluation Type: Evaluation A (Pre-1980)): active; positive
- mutagenic call (Species/Cell Type: Vicia faba, Assay Type: Chromosome aberrations, Assay Code: VIC+, Evaluation Type: Evaluation A (Pre-1980)): active; positive

Structure (SMILES): O=C(O)c1ccc([N+](=O)[O-])o1
- mutagenic call (Species/Cell Type: Bacillus subtilis (H17 vs M45T), Assay Type: Rec-assay, spot test, DNA effects (bacterial DNA repair), Assay Code: REX-, Evaluation Type: Evaluation A (Pre-1980)): inactive; negative
- mutagenic call (Species/Cell Type: Escherichia coli WP2, Assay Type: Tryptophan reverse gene mutation, Assay Code: WP2-, Evaluation Type: Evaluation A (Pre-1980)): inactive; negative
- mutagenic call (Species/Cell Type: Escherichia coli WP2 UVRA, Assay Type: Tryptophan reverse gene mutation, Assay Code: WPU-, Evaluation Type: Evaluation A (Pre-1980)): inactive; negative
- mutagenic call [16]: active; positive

Structure (SMILES): CS(C)=O.CS(C)=O.CS(C)=O.CS(C)=O.[Cl][Ru][Cl]
- mutagenic call [16]: active; positive

Structure (SMILES): Oc1cc2cc3c(ccc4ccccc43)cc2c2ccccc12
- mutagenic call [17]: active; positive
- mutagenic call (Species/Cell Type: Mouse prostate cells, Assay Type: Cell transformation, Assay Code: CTM-, Evaluation Type: Evaluation A (Pre-1980)): inactive; negative
- mutagenic call (Species/Cell Type: Syrian hamster embryo (SHE) cells, Assay Type: Cell transformation, clonal assay, Assay Code: CTCT, Evaluation Type: Evaluation A (Pre-1980)): no conclusion

Structure (SMILES): CCOC(=O)CSc1ccc2c3c(cccc13)C(=O)c1ccccc1-2
- mutagenic call [5]: active; positive

Structure (SMILES): CCCCOc1ccc(CC(=O)NOC(C)=O)cc1
- mutagenic call (Species/Cell Type: Nonhuman, Assay Type: Sister-chromatid exchange (SCE) in vitro, Assay Code: SC2+, Evaluation Type: Evaluation B (Post-1980)): active; positive

Structure (SMILES): O=C(O)c1ccc2ccccc2n1
- mutagenic call [9]: no conclusion

Structure (SMILES): CC(=O)NNC(=O)c1ccncc1
- mutagenic call (Species/Cell Type: Salmonella typhimurium, Assay Type: Forward and reverse gene mutation, host-mediated assay, Assay Code: HMAT, Evaluation Type: Evaluation A (Pre-1980)): no conclusion

Structure (SMILES): Oc1ccc(O)c(O)c1
- mutagenic call [18]: active; positive

Structure (SMILES): O=C=NCCCl
- mutagenic call (Species/Cell Type: Chinese hamster lung (V79) cells, Assay Type: Forward gene mutation at the HPRT or ouabain locus, Assay Code: V79-, Evaluation Type: Evaluation A (Pre-1980)): inactive; negative

Structure (SMILES): O=C(O)CN(CCN(CC(=O)O)CC(=O)O)CC(=O)O
- mutagenic call [18]: active; positive
- mutagenic call (Species/Cell Type: Arabidopsis species, Assay Type: Gene mutation, Assay Code: ARM-, Evaluation Type: Evaluation A (Pre-1980)): inactive; negative
- call (Species/Cell Type: Nonhuman, Assay Code: CCG-, Evaluation Type: Evaluation A (Pre-1980)): inactive; negative
- mutagenic call [12]: inactive; negative

Structure (SMILES): Cc1c2ccccc2c(C)c2c1ccc1cccc(F)c12
- mutagenic call (Species/Cell Type: Chinese hamster lung (V79) cells, Assay Type: Forward gene mutation at the HPRT or ouabain locus, Assay Code: V79-*, Activation: With metabolic activation, Evaluation Type: Evaluation A (Pre-1980)): inactive; negative

Structure (SMILES): Cc1c(N)c(=O)n(-c2ccccc2)n1C
- mutagenic call [12]: inactive; negative

Structure (SMILES): O=[N+]([O-])c1cc([N+](=O)[O-])c2ccc3cccc4ccc1c2c43
- mutagenic call (Species/Cell Type: Chinese hamster ovary (CHO) cells, Assay Type: Forward gene mutation at the HPRT locus, Assay Code: CHO+*, Activation: With metabolic activation, Evaluation Type: Evaluation B (Post-1980)): active; positive

Structure (SMILES): Nc1ccc(O)c([N+](=O)[O-])c1
- mutagenic call [2]: active; positive
- call [3]: active; positive
- mutagenic call [14]: inactive; negative

Structure (SMILES): O=C(O)c1ccccc1[N+](=O)[O-]
- mutagenic call [16]: active; positive

Structure (SMILES): Cc1c2c(cc3c1ccc1ccccc13)C=C[C@@H](O)[C@@H]2O
- mutagenic call [17]: active; positive
- mutagenic call (Species/Cell Type: Mouse prostate cells, Assay Type: Cell transformation, Assay Code: CTM+, Evaluation Type: Evaluation A (Pre-1980)): active; positive
- call (Species/Cell Type: Nonhuman, Assay Code: CCGT, Evaluation Type: Evaluation A (Pre-1980)): no conclusion
- mutagenic call (Species/Cell Type: Nonhuman, Assay Type: Sister-chromatid exchange (SCE) in vitro, Assay Code: SC2+D, Dose Response: With dose response, Evaluation Type: Evaluation A (Pre-1980)): active; positive

Structure (SMILES): CC(CCC(C)OS(C)(=O)=O)OS(C)(=O)=O (stereo not drawn)
- mutagenic call [10]: active; positive

From PubChem BioAssay AID1259408 (Genetic Toxicology Data Bank (GENE-TOX), 2018)
